# Test results from ChEMBL document CHEMBL2062489, “Design, synthesis and biological evaluation of simplified side chains of the macrolide antibiotic etnangien” (2012).
# Calls of active or inactive are those of the source. No cut-off for these calls is given here.
# Assays:
# [1] = tested on: Saccharomyces cerevisiae; experiment: Antimicrobial activity against Saccharomyces cerevisiae by serial dilution method; assay type: functional
# [2] = tested on: Escherichia coli; experiment: Antimicrobial activity against Escherichia coli by serial dilution method; assay type: functional
# [3] = tested on: Micrococcus luteus; experiment: Antimicrobial activity against Micrococcus luteus by serial dilution method; assay type: functional
# [4] = tested on: Bacillus subtilis; experiment: Antimicrobial activity against Bacillus subtilis by serial dilution method; assay type: functional
# [5] = tested on: Staphylococcus aureus; experiment: Antimicrobial activity against Staphylococcus aureus by serial dilution method; assay type: functional
# [6] = tested on: Corynebacterium glutamicum; experiment: Antimicrobial activity against Corynebacterium glutamicum by serial dilution method; assay type: functional
# [7] = tested on: Mycolicibacterium phlei; experiment: Antimicrobial activity against Mycobacterium phlei by serial dilution method; assay type: functional
# [8] = tested on: Agromyces mediolanus; experiment: Antimicrobial activity against Corynebacterium mediolanum by serial dilution method; assay type: functional
# [9] = tested on: Gordonia rubripertincta; experiment: Antimicrobial activity against Nocardia coralline by serial dilution method; assay type: functional
# [10] = tested on: Mycobacterium sp.; experiment: Antimicrobial activity against Mycobacterium sp. by serial dilution method; assay type: functional, organism-based
Structure (SMILES),MIC [1] [µg/mL],MIC [2] [µg/mL],MIC [3] [µg/mL],MIC [4] [µg/mL],MIC [5] [µg/mL],MIC [6] [µg/mL],MIC [7] [µg/mL],MIC [8] [µg/mL],Activity [9],Activity [10]
COC(=O)CC/C=C/[C@@H](O)C/C=C/C=C/C=C/CC/C=C/C=C/[C@@H](O)[C@@H](C)CO,> 80,> 80,> 80,20,80,80,> 40,40,,
CO[C@@H]1C/C=C\C=C\C[C@H](C)[C@@H](O)[C@H](C)[C@@H](O)[C@H](C)[C@H](O)CC(=O)O[C@H]([C@H](C)[C@H](O)/C=C(C)/C=C/C=C/C=C/C=C/C=C/C[C@H](O)/C(C)=C/CCC(=O)O)C[C@H](O)CCC1 [ETNANGIEN],> 80,> 80,0.39,10,1,0.03,0.12,0.06,Active,Active
COC(=O)CC/C(C)=C/[C@@H](O)C/C=C/C=C/C=C/C=C/C=C/C(C)=C/[C@@H](O)[C@@H](C)COCc1ccc(OC)cc1,> 40,> 40,> 40,> 40,> 40,> 40,> 40,> 40,,
COC(=O)CC/C=C/[C@@H](O)C/C=C/C=C/C=C/C=C/C=C/[C@@H](O)[C@@H](C)CO,> 80,> 80,> 80,> 80,> 80,> 80,> 40,> 80,,
COC(=O)CC/C=C/[C@@H](O)C/C=C/C=C/C=C/CC/C=C/C=C/[C@@H](O)[C@@H](C)COCc1ccc(OC)cc1,> 80,> 80,> 80,> 80,> 80,> 80,> 40,> 80,,
COC(=O)CC/C=C(\C)[C@@H](O)C/C=C/C=C/C=C/C=C/C=C/C(C)=C/[C@@H](O)[C@@H](C)[C@@H]1C[C@H](O)CCC[C@H](OC)C/C=C\C=C\C[C@H](C)[C@@H](O)[C@H](C)[C@@H](O)[C@H](C)[C@H](O)CC(=O)O1 [ETNANGIEN METHYL ESTER],> 40,> 20,0.06,20,2.5,0.24,,,Active,Active
COC(=O)CC/C=C/[C@@H](O)C/C=C/C=C/C=C/C=C/C=C/[C@@H](O)[C@@H](C)COCc1ccc(OC)cc1,> 80,> 80,> 80,> 80,> 80,80,> 40,> 80,,
